Measured values as given in patent publication US8084489B2 (Eli Lilly and Company, priority 2005, dated 2011).

Target: cloned human glucagon receptor (Homo sapiens, UniProt P47871)
Assay: Glucagon Receptor (hGlucR) Binding Assay
Description: This plasmid DNA was transfected into 293 HEK cells and selected with 200 ug/ml Hygromycin.
Crude plasma membranes are prepared using cells from suspension culture. The cells are lysed on ice in hypotonic buffer containing 25 mM Tris HCL, pH 7.5, 1 mM MgCl2, DNAse1, 20 u/ml, and Roche Complete Inhibitors-without EDTA. The cell suspension is homogenized with a glass dounce homogenizer using a Teflon pestle for 25 strokes. The homogenate is centrifuged at 4 degrees C. at 1800×g for 15 mins. The supernate is collected and the pellet is resuspended in hypotonic buffer and rehomogenized. The mixture is centrifuged at 1800×g for 15 mins. The second supernate is combined with the first supernate. The combined supernates are recentrifuged at 1800×g for 15 mins to clarify. The clarified supernate is transferred to high speed tubes and centrifuged at 25000×g for 30 minutes at 4 degrees C. The membrane pellet is resuspended in homogenization buffer and stored as frozen aliquots at −80 degree C. freezer until needed.
The specific activity is 2200 Ci/mmol.
The binding buffer contains 25 mM Hepes, pH 7.4, 2.5 mM CaCl2, 1 mM MgCl2, 0.1% fatty acid free BSA, (ICN), 0.003% tween-20, and Roche Complete Inhibitors without EDTA. […] Test compounds are dissolved in DMSO and serially diluted in DMSO. […] Plates are read with a MicroBeta after 14 hours of settling time at room temp. […]

cloned human glucagon receptor, sequence (P47871 26-477): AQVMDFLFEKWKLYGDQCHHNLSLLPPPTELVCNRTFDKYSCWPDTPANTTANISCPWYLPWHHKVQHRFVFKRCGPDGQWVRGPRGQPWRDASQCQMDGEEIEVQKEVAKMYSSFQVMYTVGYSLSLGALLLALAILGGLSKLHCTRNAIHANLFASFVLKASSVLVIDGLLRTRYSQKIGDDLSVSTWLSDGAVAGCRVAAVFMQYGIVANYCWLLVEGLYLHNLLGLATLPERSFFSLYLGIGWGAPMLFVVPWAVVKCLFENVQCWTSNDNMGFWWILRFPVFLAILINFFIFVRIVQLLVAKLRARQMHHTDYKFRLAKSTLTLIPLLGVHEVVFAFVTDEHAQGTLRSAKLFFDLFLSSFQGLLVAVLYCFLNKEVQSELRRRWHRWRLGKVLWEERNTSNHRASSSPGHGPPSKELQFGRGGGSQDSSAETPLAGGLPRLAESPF

Ki [µM] | Compound
0.39 | CC(C)CC(Oc1ccc(-c2ccc(C(F)(F)F)cc2)cc1)c1ccc(C(=O)NCCC(=O)O)s1 (centres unmarked)
0.296 | CC(C)CC(Oc1ccc(-c2ccc(C(C)(C)C)cc2)nc1)c1ccc(C(=O)NCCC(=O)O)s1 (centres unmarked)
